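These data come from cells grown in 96-well plates and exposed to compound for 48 hours at five concentrations. GI50 is the concentration that inhibits growth by half.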 The source made the active and inactive calls. Cut-off read from the data, not from the text of the source: active = GI50 up to about 1.1 µM and inactive = higher.
What was measured:
Assay in all cases: NCI tumour cell line growth inhibition, 48 h
[1] = tested on: NCI-H23
[2] = tested on: HT-29
[3] = tested on: RPMI-8226
[4] = tested on: UO-31
[5] = tested on: SF-539
[6] = tested on: PC-3
[7] = tested on: SF-268
[8] = tested on: ACHN
[9] = tested on: NCI-H460
[10] = tested on: KM12
[11] = tested on: HCT-116
[12] = tested on: OVCAR-5
[13] = tested on: MDA-MB-435
[14] = tested on: SR
[15] = tested on: Hs-578T
[16] = tested on: OVCAR-4
[17] = tested on: OVCAR-8
[18] = tested on: TK-10
[19] = tested on: 786-0
[20] = tested on: HL-60
[21] = tested on: RXF 393
[22] = tested on: MCF7
[23] = tested on: CAKI-1
[24] = tested on: SK-OV-3
[25] = tested on: SK-MEL-5
[26] = tested on: SK-MEL-28
[27] = tested on: CCRF-CEM
[28] = tested on: HOP-92
[29] = tested on: EKVX
[30] = tested on: NCI-H226
[31] = tested on: K562
[32] = tested on: LOX IMVI
[33] = tested on: COLO 205
[34] = tested on: UACC-257
[35] = tested on: U-251
[36] = tested on: SW-620
[37] = tested on: BT-549
[38] = tested on: UACC-62
[39] = tested on: HCC 2998
[40] = tested on: MOLT-4
[41] = tested on: HOP-62
[42] = tested on: A549
[43] = tested on: MDA-MB-231
[44] = tested on: OVCAR-3
[45] = tested on: HCT-15
[46] = tested on: A498
[47] = tested on: SF-295
[48] = tested on: IGROV-1
[49] = tested on: SNB-19
[50] = tested on: SN12C
[51] = tested on: DU-145
[52] = tested on: NCI-H522
[53] = tested on: SK-MEL-2
[54] = tested on: Malme-3M
[55] = tested on: SNB-75
[56] = tested on: T47D
[57] = tested on: MDA-N
[58] = tested on: M14
[59] = tested on: NCI/ADR-RES

In the case of c1ccc([P+](CC[P+](c2ccccc2)(c2ccccc2)c2ccccc2)(c2ccccc2)c2ccccc2)cc1, the GI50 [1] was 26300 nM (inactive), the GI50 [2] was 23400 nM (inactive) and the GI50 [3] was 693 nM (active). For the same molecule, the GI50 [4] was > 46100 nM (inactive), the GI50 [5] was 9420 nM (inactive) and the GI50 [6] was 6270 nM (inactive). For the same molecule, the GI50 [7] was 6050 nM (inactive), the GI50 [8] was 19200 nM (inactive) and the GI50 [9] was 5790 nM (inactive). The GI50 [10] was 15200 nM (inactive), the GI50 [11] was 16500 nM (inactive) and the GI50 [12] was 44400 nM (inactive). For the same molecule, the GI50 [13] was 9640 nM (inactive), the GI50 [14] was 14700 nM (inactive) and the GI50 [15] was 7980 nM (inactive). For the same molecule, the GI50 [16] was 34300 nM (inactive), the GI50 [17] was 4820 nM (inactive) and the GI50 [18] was 12300 nM (inactive). For the same molecule, the GI50 [19] was 21900 nM (inactive), the GI50 [20] was 396 nM (active) and the GI50 [21] was 27400 nM (inactive). The GI50 [22] was 32100 nM (inactive), the GI50 [23] was 61800 nM (inactive) and the GI50 [24] was > 84900 nM (inactive). The GI50 [25] was 8790 nM (inactive), the GI50 [26] was 13700 nM (inactive) and the GI50 [27] was 250 nM (active). For the same molecule, the GI50 [28] was 32600 nM (inactive), the GI50 [29] was 4760 nM (inactive) and the GI50 [30] was > 56800 nM (inactive). For the same molecule, the GI50 [31] was 2440 nM (inactive), the GI50 [32] was 63000 nM (inactive) and the GI50 [33] was 8810 nM (inactive). For the same molecule, the GI50 [34] was 1190 nM (inactive), the GI50 [35] was 2940 nM (inactive) and the GI50 [36] was 3620 nM (inactive). For the same molecule, the GI50 [37] was 42300 nM (inactive), the GI50 [38] was 25600 nM (inactive) and the GI50 [39] was 7780 nM (inactive). For the same molecule, the GI50 [40] was 12600 nM (inactive), the GI50 [41] was 26400 nM (inactive) and the GI50 [42] was 2490 nM (inactive). For the same molecule, the GI50 [43] was 38600 nM (inactive), the GI50 [44] was 13000 nM (inactive) and the GI50 [45] was 29000 nM. For the same molecule, the GI50 [46] was 5870 nM (inactive), the GI50 [47] was 33700 nM (inactive) and the GI50 [48] was 38000 nM (inactive). For the same molecule, the GI50 [49] was 47400 nM (inactive), the GI50 [50] was 9310 nM (inactive) and the GI50 [51] was 48900 nM (inactive). For the same molecule, the GI50 [52] was 3100 nM (inactive), the GI50 [53] was 9380 nM (inactive) and the GI50 [54] was 14100 nM (inactive). The GI50 [55] was 20100 nM (inactive), the GI50 [56] was 4340 nM (inactive) and the GI50 [57] was 14400 nM (inactive). For the same molecule, the GI50 [58] was 22300 nM (inactive) and the GI50 [59] was 61400 nM (inactive).
In the case of O=C1c2cccnc2-c2nccc3c2c1nc1cc(Br)ccc13, the GI50 [1] was 95.5 nM (active), the GI50 [2] was 989 nM (active) and the GI50 [3] was 74.8 nM (active). For the same molecule, the GI50 [4] was 221 nM (active), the GI50 [5] was 279 nM (active) and the GI50 [6] was 275 nM (active). For the same molecule, the GI50 [7] was 134 nM (active), the GI50 [8] was 208 nM (active) and the GI50 [9] was 138 nM (active). The GI50 [10] was 147 nM (active), the GI50 [11] was 25 nM (active) and the GI50 [12] was 240 nM (active). For the same molecule, the GI50 [13] was 198 nM (active), the GI50 [14] was 22.1 nM (active) and the GI50 [15] was 204 nM (active). The GI50 [16] was 148 nM (active), the GI50 [17] was 65.9 nM (active) and the GI50 [18] was 979 nM (active). For the same molecule, the GI50 [19] was 71.3 nM (active), the GI50 [20] was 40.5 nM (active) and the GI50 [21] was 94.6 nM (active). For the same molecule, the GI50 [22] was < 36.6 nM (active), the GI50 [23] was 218 nM (active) and the GI50 [24] was 239 nM (active). For the same molecule, the GI50 [25] was 132 nM (active), the GI50 [26] was 84.3 nM (active) and the GI50 [27] was 98.9 nM (active). For the same molecule, the GI50 [28] was 438 nM (active), the GI50 [29] was 1150 nM (inactive) and the GI50 [30] was 216 nM (active). The GI50 [31] was 33 nM (active), the GI50 [32] was 53.3 nM (active) and the GI50 [33] was 798 nM (active). The GI50 [34] was 226 nM (active), the GI50 [35] was 84.3 nM (active) and the GI50 [36] was < 26.4 nM (active). For the same molecule, the GI50 [37] was 250 nM (active), the GI50 [38] was 178 nM (active) and the GI50 [39] was 406 nM (active). For the same molecule, the GI50 [40] was 95.5 nM (active), the GI50 [41] was 155 nM (active) and the GI50 [42] was 122 nM (active). The GI50 [43] was 103 nM (active), the GI50 [44] was 124 nM (active) and the GI50 [45] was 72.1 nM. The GI50 [46] was 19.6 nM (active), the GI50 [47] was 227 nM (active) and the GI50 [48] was 140 nM (active). For the same molecule, the GI50 [49] was 270 nM (active), the GI50 [50] was 101 nM (active) and the GI50 [51] was 121 nM (active). The GI50 [52] was 115 nM (active), the GI50 [53] was 165 nM (active) and the GI50 [54] was 108 nM (active). The GI50 [55] was 243 nM (active), the GI50 [56] was 88.3 nM (active) and the GI50 [57] was 225 nM (active). The GI50 [58] was 55.3 nM (active) and the GI50 [59] was 37.5 nM (active).
